Target: T1, human CYP11B2 (Homo sapiens, UniProt P19099)
T1 construct: expressed in transfected cells; host or cells: V79 Chinese hamster cells
T1 sequence (P19099 25-503): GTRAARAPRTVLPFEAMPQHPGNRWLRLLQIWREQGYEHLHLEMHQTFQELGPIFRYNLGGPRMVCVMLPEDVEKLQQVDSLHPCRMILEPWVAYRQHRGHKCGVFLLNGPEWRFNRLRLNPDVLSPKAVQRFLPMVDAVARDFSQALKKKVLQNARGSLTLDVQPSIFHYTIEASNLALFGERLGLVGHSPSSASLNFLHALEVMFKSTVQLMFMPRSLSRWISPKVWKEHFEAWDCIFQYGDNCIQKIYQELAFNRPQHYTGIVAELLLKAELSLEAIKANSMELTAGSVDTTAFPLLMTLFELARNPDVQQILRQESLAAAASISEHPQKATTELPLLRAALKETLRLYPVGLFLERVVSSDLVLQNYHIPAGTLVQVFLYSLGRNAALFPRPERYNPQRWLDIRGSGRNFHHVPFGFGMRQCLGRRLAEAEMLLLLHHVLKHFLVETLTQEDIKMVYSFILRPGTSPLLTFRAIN
Test: Aldosterone inhibitory activity in V79 cells expressing human CYP11B2
Type: cell-based
Conditions: V79 Chinese hamster cells stably transfected with human CYP11B2; substrate 11-deoxycorticosterone 100 nM; read-out: IC50, inhibition of the production of aldosterone
Protocol: For the determination of aldosterone inhibitory activity, tests were carried out using V79 Chinese hamster cells stably transfected with human CYP11B2 or CYP11B1 and using assay protocols as described in Ehmer P B, Bureik M, Bernhardt R, Muller U, Hartmann R W. Development of a test system for inhibitors of human aldosterone synthase (CYP11B2): screening in fission yeast and evaluation of selectivity in V79 cells. J. Steroid Biochem. Mol. Biol. 2002 June; 81(2):173-9. The concentration of the substrate 11-deoxycorticosterone in the assay was 100 nM.

SMILES	IC50 [nM]
COc1ccncc1C(O)(c1nc2cccc(Br)c2s1)C(C)C (stereo not shown) [1-(7-bromobenzo[d]thiazol-2-yl)-1-(4-methoxypyridin-3-yl)-2-methylpropan-1-ol]	< 1000
CCCC(O)(c1nc2ccc(C#N)cc2s1)c1cnccc1OCC (stereo not shown) [Example 72, 1-(6-cyanobenzo[d]thiazol-2-yl)-1-(4-ethoxypyridin-3-yl)butan-1-ol]	< 1000
COc1ccncc1C(O)c1nc2ccc(Br)cc2s1 (stereo not shown) [Example 26, (6-bromobenzo[d]thiazol-2-yl)(4-methoxypyridin-3-yl)methanol]	< 1000
CCCC(O)(c1cncc(OC)c1)c1nc2ccc(F)cc2s1 (stereo not shown) [Example 20, 1-(6-fluorobenzo[d]thiazol-2-yl)-1-(5-methoxypyridin-3-yl)butan-1-ol]	< 1000
CCCC(O)(c1nc2ccc(OC(F)(F)F)c(Br)c2s1)c1cnccc1OCC (stereo not shown) [Example 57, 1-(7-bromo-6-(trifluoromethoxy)benzo[d]thiazol-2-yl)-1-(4-ethoxypyridin-3-yl)butan-1-ol]	< 1000
CCCC(O)(c1nc2ccc(Oc3ccc(OC(F)(F)F)cc3)cc2s1)c1cnccc1OCC (stereo not shown) [Example 54, 1-(4-ethoxypyridin-3-yl)-1-(6-(4-(trifluoromethoxy)phenoxy)benzo[d]thiazol-2-yl)butan-1-ol]	< 1000
CCCC(O)(c1nc2ccc(OC(F)(F)F)cc2s1)c1cnccc1OCC (stereo not shown) [Example 46, 1-(4-ethoxypyridin-3-yl)-1-(6-(trifluoromethoxy)benzo[d]thiazol-2-yl)butan-1-ol]	< 1000
CCCOc1ccncc1C(O)(CCC)c1nc2cc(Cl)c(OC(F)(F)F)cc2s1 (stereo not shown) [Example 63, 1-(5-chloro-6-(trifluoromethoxy)benzo[d]thiazol-2-yl)-1-(4-propoxypyridin-3-yl)butan-1-ol]	< 1000
COc1ccncc1C(O)(c1nc2ccccc2s1)C(C)(C)C (stereo not shown) [Example 31, 1-(benzo[d]thiazol-2-yl)-1-(4-methoxypyridin-3-yl)-2,2-dimethylpropan-1-ol]	< 1000
CCCC(O)(c1nc2cc(Cl)c(Cl)cc2s1)c1cnccc1OCC (stereo not shown) [Example 50, 1-(5,6-dichlorobenzo[d]thiazol-2-yl)-1-(4-ethoxypyridin-3-yl)butan-1-ol]	< 1000
CCCC(O)(c1nc2ccc(F)cc2s1)c1cnccc1OCC (stereo not shown) [Example 41, 1-(4-ethoxypyridin-3-yl)-1-(6-fluorobenzo[d]thiazol-2-yl)butan-1-ol]	< 1000
CCCC(O)(c1nc2ccc(Oc3ccc(F)cc3)cc2s1)c1cnccc1OCC (stereo not shown) [Example 55, 1-(4-ethoxypyridin-3-yl)-1-(6-(4-fluorophenoxy)benzo[d]thiazol-2-yl)butan-1-ol]	< 1000
CCCC(O)(c1nc2ccc(C(N)=O)cc2s1)c1cnccc1OCC (stereo not shown) [Example 73, 2-(1-(4-ethoxypyridin-3-yl)-1-hydroxybutyl)benzo[d]thiazole-6-carboxamide]	< 1000
CCCC(O)(c1nc2cccc(OC)c2s1)c1cnccc1OCC (stereo not shown) [Example 44, 1-(4-ethoxypyridin-3-yl)-1-(7-methoxybenzo[d]thiazol-2-yl)butan-1-ol]	< 1000
CCCC(O)(c1nc2cc3c(cc2s1)OC(F)(F)O3)c1cnccc1OCC (stereo not shown) [Example 52, 1-(2,2-difluoro-[1,3]dioxolo[4′,5′:4,5]benzo[1,2-d]thiazol-6-yl)-1-(4-ethoxypyridin-3-yl)butan-1-ol]	< 1000
CCCC(O)(c1nc2c(F)ccc(F)c2s1)c1cnccc1OCC (stereo not shown) [Example 43, 1-(4,7-difluorobenzo[d]thiazol-2-yl)-1-(4-ethoxypyridin-3-yl)butan-1-ol]	< 1000
CCCC(O)(c1nc2cccc(C(F)(F)F)c2s1)c1cnccc1OCC (stereo not shown) [Example 47, 1-(4-ethoxypyridin-3-yl)-1-(7-(trifluoromethyl)benzo[d]thiazol-2-yl)butan-1-ol]	< 1000
CCCC(O)(c1nc2cccc(Br)c2s1)c1cnccc1C(C)C (stereo not shown) [Example 38, 1-(7-bromobenzo[d]thiazol-2-yl)-1-(4-isopropylpyridin-3-yl)butan-1-ol]	< 1000
CCCC(O)(c1nc2cccc(Cl)c2s1)c1cnccc1OCC (stereo not shown) [Example 42, 1-(7-chlorobenzo[d]thiazol-2-yl)-1-(4-ethoxypyridin-3-yl)butan-1-ol]	< 1000
CCCC(O)(c1nc2ccc(Br)cc2s1)c1cnccc1OCC (stereo not shown) [Example 29, 1-(6-bromobenzo[d]thiazol-2-yl)-1-(4-ethoxypyridin-3-yl)butan-1-ol]	< 1000

The remaining lines, values ahead:

IC50 [nM]	SMILES
< 1000	COc1ccncc1C(O)c1nc2cccc(Br)c2s1 (stereo not shown) [Example 27, (7-bromobenzo[d]thiazol-2-yl)(4-methoxypyridin-3-yl)methanol]
< 1000	CCCC(O)(c1nc2ccc(Br)cc2s1)c1cnccc1OC (stereo not shown) [Example 70, 1-(6-bromobenzo[d]thiazol-2-yl)-1-(4-methoxypyridin-3-yl)butan-1-ol]
< 1000	CCCOc1ccncc1C(O)(CCC)c1nc2ccc(OC(F)(F)F)c(Cl)c2s1 (stereo not shown) [Example 64, 1-(7-chloro-6-(trifluoromethoxy)benzo[d]thiazol-2-yl)-1-(4-propoxypyridin-3-yl)butan-1-ol]
< 1000	CC(C)c1ccncc1C(O)(c1nc2cccc(Br)c2s1)C(C)C (stereo not shown) [Example 34, 1-(7-bromobenzo[d]thiazol-2-yl)-1-(4-isopropylpyridin-3-yl)-2-methylpropan-1-ol]
< 1000	CC(C)Oc1ccncc1C(O)(c1nc2cccc(Br)c2s1)C(C)C (stereo not shown) [Example 36, 1-(7-bromobenzo[d]thiazol-2-yl)-1-(4-isopropoxypyridin-3-yl)-2-methylpropan-1-ol]
< 1000	CCCC(O)(c1nc2cccc(Br)c2s1)c1cnccc1OCC (stereo not shown) [Example 30, 1-(7-bromobenzo[d]thiazol-2-yl)-1-(4-ethoxypyridin-3-yl)butan-1-ol]
< 1000	CCCC(O)(c1nc2ccc(Cl)cc2s1)c1cnccc1OCC (stereo not shown) [Example 39, 1-(6-chlorobenzo[d]thiazol-2-yl)-1-(4-ethoxypyridin-3-yl)butan-1-ol]
< 1000	CCCC(O)(c1nc2ccc([N+](=O)[O-])cc2s1)c1cnccc1OC (stereo not shown) [Example 28, 1-(4-methoxypyridin-3-yl)-1-(6-nitrobenzo[d]thiazol-2-yl)butan-1-ol]
< 1000	CCCC(O)(c1nc2ccc(OC)cc2s1)c1cnccc1OCC (stereo not shown) [Example 48, 1-(4-ethoxypyridin-3-yl)-1-(6-methoxybenzo[d]thiazol-2-yl)butan-1-ol]
< 1000	CCCC(O)(c1nc2ccc(OC(F)(F)F)c(C)c2s1)c1cnccc1OCC (stereo not shown) [Example 61, 1-(4-ethoxypyridin-3-yl)-1-(7-methyl-6-(trifluoromethoxy)benzo[d]thiazol-2-yl)butan-1-ol]
< 1000	CCCC(O)(c1nc2ccc(C(F)(F)F)cc2s1)c1cnccc1OCC (stereo not shown) [Example 45, 1-(4-ethoxypyridin-3-yl)-1-(6-(trifluoromethyl)benzo[d]thiazol-2-yl)butan-1-ol]
< 1000	CCOc1ccncc1C(O)(c1nc2cccc(Br)c2s1)C(C)C (stereo not shown) [Example 1, 1-(7-bromobenzo[d]thiazol-2-yl)-1-(4-ethoxypyridin-3-yl)-2-methylpropan-1-ol]
< 1000	CCCC(O)(c1nc2ccc(OC(F)(F)F)c(Cl)c2s1)c1cnccc1OCC (stereo not shown) [Example 59, 1-(7-chloro-6-(trifluoromethoxy)benzo[d]thiazol-2-yl)-1-(4-ethoxypyridin-3-yl)butan-1-ol]
< 1000	CCCC(O)(c1nc2cc(Br)c(OC(F)(F)F)cc2s1)c1cnccc1OCC (stereo not shown) [Example 56, 1-(5-bromo-6-(trifluoromethoxy)benzo[d]thiazol-2-yl)-1-(4-ethoxypyridin-3-yl)butan-1-ol]
< 1000	COc1ccncc1C(O)(c1nc2ccc(Br)cc2s1)C(C)C (stereo not shown) [Example 25, 1-(6-bromobenzo[d]thiazol-2-yl)-1-(4-methoxypyridin-3-yl)-2-methylpropan-1-ol]
< 1000	CCCC(O)(c1nc2ccc(OC(F)(F)F)cc2s1)c1cnccc1OC(C)C (stereo not shown) [Example 49, 1-(4-isopropoxypyridin-3-yl)-1-(6-(trifluoromethoxy)benzo[d]thiazol-2-yl)butan-1-ol]
< 1000	CCOc1ccncc1C(O)(c1nc2ccc(Br)cc2s1)C(C)C (stereo not shown) [Example 32, 1-(6-bromobenzo[d]thiazol-2-yl)-1-(4-ethoxypyridin-3-yl)-2-methylpropan-1-ol]
< 1000	CCCC(O)(c1nc2ccc(Br)cc2s1)c1cnccc1C(C)C (stereo not shown) [Example 37, 1-(6-bromobenzo[d]thiazol-2-yl)-1-(4-isopropylpyridin-3-yl)butan-1-ol]
< 1000	CCCC(O)(c1nc2cc(Cl)c(OC(F)(F)F)cc2s1)c1cnccc1OCC (stereo not shown) [Example 58, 1-(5-chloro-6-(trifluoromethoxy)benzo[d]thiazol-2-yl)-1-(4-ethoxypyridin-3-yl)butan-1-ol]
< 1000	CCCC(O)(c1nc2cc(C)c(OC(F)(F)F)cc2s1)c1cnccc1OCC (stereo not shown) [Example 60, 1-(4-ethoxypyridin-3-yl)-1-(5-methyl-6-(trifluoromethoxy)benzo[d]thiazol-2-yl)butan-1-ol]

From US11434234B2, “Methods and agents for treating disease” (ANGION BIOMEDICA CORP., priority 2014, dated 2022)
